Legend:
human CB1 receptors = human CB1 receptors (Homo sapiens (Human), UniProt P21554); test: functional cAMP assay, CHO cells expressing human CB1 receptors; format: cell-based
Protocol: (§1) CHO cells expressing human CB1 or CB2 receptors are seeded 17-24 hours prior to the experiment 50.000 cells per well in a black 96 well plate with flat clear bottom (Corning Costar #3904) in DMEM (Invitrogen No. 31331), 1×HT supplement, with 10% fetal calf serum and incubated at 5% CO2 and 37° C. in a humidified incubator. The growth medium was exchanged with Krebs Ringer Bicarbonate buffer with 1 mM IBMX and incubated at 30° C. for 30 min. Compounds were added to a final assay volume of 100 μl and incubated for 30 min at 30° C. Using the cAMP-Nano-TRF detection kit the assay (Roche Diagnostics) was stopped by the addition of 50 μl lysis reagent (Tris, NaCl, 1.5% Triton X100, 2.5% NP40, 10% NaN3) and 50 μl detection solutions (20 μM mAb Alexa700-cAMP 1:1, and 48 μM Ruthenium-2-AHA-cAMP) and shaken for 2 h at room temperature. The time-resolved energy transfer is measured by a TRF reader (Evotec Technologies GmbH), equipped with a ND:YAG laser as excitation source. The plate is measured twice with the excitation at 355 nm and at the emission with a delay of 100 ns and a gate of 100 ns, total exposure time 10 s at 730 (bandwidth 30 nm) or 645 nm (bandwidth 75 nm), respectively. The FRET signal is calculated as follows: FRET=T730-Alexa730-P(T645-B645) with P=Ru730-B730/Ru645-B645, where T730 is the test well measured at 730 nM, T645 is the test well measured at 645 nm, B730 and B645 are the buffer controls at 730 nm and 645 nm, respectively. cAMP content is determined from the function of a standard curve spanning from 10 μM to 0.13 nM cAMP.
(§2) EC50 values were determined using Activity Base analysis (ID Business Solution, Limited). The EC50 values for a wide range of cannabinoid agonists generated from this assay were in agreement with the values published in the scientific literature.

human CB2 receptors = human CB2 receptors (Homo sapiens (Human), UniProt P34972); test: functional cAMP assay, CHO cells expressing human CB2 receptors; format: cell-based
Chain of human CB2 receptors (P34972 whole entry): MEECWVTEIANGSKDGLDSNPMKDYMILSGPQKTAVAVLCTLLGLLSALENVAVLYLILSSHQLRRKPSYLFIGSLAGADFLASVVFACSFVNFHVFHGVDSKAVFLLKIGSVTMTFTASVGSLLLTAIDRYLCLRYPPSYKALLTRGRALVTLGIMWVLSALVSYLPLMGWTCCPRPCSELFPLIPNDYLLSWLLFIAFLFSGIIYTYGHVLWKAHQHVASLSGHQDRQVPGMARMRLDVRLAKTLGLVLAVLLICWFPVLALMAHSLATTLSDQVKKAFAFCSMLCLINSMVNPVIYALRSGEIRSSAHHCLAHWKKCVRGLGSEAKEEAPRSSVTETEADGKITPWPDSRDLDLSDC
Protocol: as §1, §2

Chain of human CB1 receptors (P21554 whole entry): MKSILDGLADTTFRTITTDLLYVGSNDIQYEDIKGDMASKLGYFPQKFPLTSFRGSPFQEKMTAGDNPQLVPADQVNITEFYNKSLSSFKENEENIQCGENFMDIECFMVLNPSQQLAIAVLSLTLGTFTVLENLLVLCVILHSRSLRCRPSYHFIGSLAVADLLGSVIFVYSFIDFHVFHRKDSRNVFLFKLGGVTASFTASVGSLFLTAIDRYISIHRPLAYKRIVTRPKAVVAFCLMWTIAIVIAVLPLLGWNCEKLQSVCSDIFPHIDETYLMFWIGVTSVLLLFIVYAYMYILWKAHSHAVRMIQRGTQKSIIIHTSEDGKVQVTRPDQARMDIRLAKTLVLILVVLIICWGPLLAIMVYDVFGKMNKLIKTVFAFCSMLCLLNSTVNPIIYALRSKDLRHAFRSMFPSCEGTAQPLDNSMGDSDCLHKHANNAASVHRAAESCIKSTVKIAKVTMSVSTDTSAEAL

| Structure (SMILES) | EC50 (human CB1 receptors) | EC50 (human CB2 receptors) |
| --- | --- | --- |
| O=C(c1ccc(N2CC(F)(F)C2)c(OCC2CC2)n1)N1CC2CCOC2C1 (stereo not drawn) [Example 70, [6-Cyclopropylmethoxy-5-(3,3-difluoro-azetidin-1-yl)-pyridin-2-yl]-(hexahydrofuro[2,3-c]pyrrol-5-yl)-methanone] | > 10000 nM | 104 nM |
| O=C(c1ccc(N2CC(F)(F)C2)c(OCC2CC2)n1)N1C[C@@H]2C[C@H]1CO2 [Example 65, [6-Cyclopropylmethoxy-5-(3,3-difluoro-azetidin-1-yl)-pyridin-2-yl]-(1S,4S)-2-oxa-5-aza-bicyclo[2.2.1]hept-5-yl-methanone] | > 10000 nM | 100 nM |
| O=C(c1ccc(N2CC(F)(F)C2)c(OCC2CC2)n1)N1C[C@@H]2C[C@H]1CS2 [Example 62, [6-Cyclopropylmethoxy-5-(3,3-difluoro-azetidin-1-yl)-pyridin-2-yl]-(1S,4S)-2-thia-5-aza-bicyclo[2.2.1]hept-5-yl-methanone] | > 10000 nM | 9.1 nM |
| CC1(C)C[C@@H](C(N)=O)N(C(=O)c2ccc(C3CC3)c(OCC3CC3)n2)C1 [Example 95, (−)-1-(5-Cyclopropyl-6-cyclopropylmethoxy-pyridine-2-carbonyl)-4,4-dimethyl-pyrrolidine-2-carboxylic acid amide] | > 10000 nM | 10.4 nM |
| O=C(c1ccc(N2CC(F)(F)C2)c(OCC2CC2)n1)N1C[C@@H]2CC[C@H]1C2 [Example 59, (1S,4R)-2-Aza-bicyclo[2.2.1]hept-2-yl-[6-cyclopropylmethoxy-5-(3,3-difluoro-azetidin-1-yl)-pyridin-2-yl]-methanone] | > 10000 nM | 14.2 nM |
| COC1CN(c2ccc(C(=O)N3CS(=O)(=O)CC3C(N)=O)nc2OCC2CC2)C1 (stereo not drawn) [Example 128, 3-[6-(Cyclopropylmethoxy)-5-(3-methoxyazetidin-1-yl)pyridine-2-carbonyl]-1,1-dioxo-1,3-thiazolidine-4-carboxamide] | > 10000 nM | 30.2 nM |
| NC(=O)[C@@H]1CC(F)(F)CN1C(=O)c1ccc(C2CC2)c(OCC2CC2)n1 [Example 68, (S)-1-(5-Cyclopropyl-6-cyclopropylmethoxy-pyridine-2-carbonyl)-4,4-difluoro-pyrrolidine-2-carboxylic acid amide] | > 10000 nM | 2.7 nM |
| CC1(C)CC(O)CCN1C(=O)c1ccc(N2CC(F)(F)C2)c(OCC2CC2)n1 (stereo not drawn) [Example 66, [6-Cyclopropylmethoxy-5-(3,3-difluoro-azetidin-1-yl)-pyridin-2-yl]-(4-hydroxy-2,2-dimethyl-piperidin-1-yl)-methanone] | > 10000 nM | 5.6 nM |
| CC1(C)CC(C2CCN(C(=O)c3ccc(N4CC(F)(F)C4)c(OCC4CC4)n3)CC2)C(=O)N1 (stereo not drawn) [Example 58, 3-{1-[6-Cyclopropylmethoxy-5-(3,3-difluoro-azetidin-1-yl)-pyridine-2-carbonyl]-piperidin-4-yl}-5,5-dimethyl-pyrrolidin-2-one] | > 10000 nM | 594 nM |
| CC1(C)COCN1C(=O)c1ccc(N2CC(F)(F)C2)c(OCC2CC2)n1 [Example 14, [6-Cyclopropylmethoxy-5-(3,3-difluoro-azetidin-1-yl)-pyridin-2-yl]-(4,4-dimethyl-oxazolidin-3-yl)-methanone] | > 10000 nM | 7.3 nM |
| NC(=O)[C@@H]1CS(=O)(=O)CN1C(=O)c1ccc(N2CC(F)(F)C2)c(OCC2CC2)n1 [Example 127, (−)-3-[6-(Cyclopropylmethoxy)-5-(3,3-difluoroazetidin-1-yl)pyridine-2-carbonyl]-1,1-dioxo-1,3-thiazolidine-4-carboxamide] | > 10000 nM | 3.4 nM |
| O=C(c1ccc(N2CC(F)(F)C2)c(OCC2CC2)n1)N(Cc1ccccc1)C1(C(F)(F)F)CC1 [Example 22, 6-Cyclopropylmethoxy-5-(3,3-difluoro-azetidin-1-yl)-pyridine-2-carboxylic acid benzyl-(1-trifluoromethyl-cyclopropyl)-amide] | > 10000 nM | 25 nM |
| CN(C(=O)c1ccc(C2CC2)c(OCC2CCCO2)n1)C(C)(C)C (stereo not drawn) [Example 4, 5-Cyclopropyl-6-(tetrahydro-furan-2-ylmethoxy)-pyridine-2-carboxylic acid tert-butyl-methyl-amide] | > 10000 nM | 8.5 nM |
| CCOC(=O)CN(C(=O)c1ccc(N2CC(F)(F)C2)c(OCC2CC2)n1)C(C)(C)C [Example 23, {tert-Butyl-[6-cyclopropylmethoxy-5-(3,3-difluoro-azetidin-1-yl)-pyridine-2-carbonyl]-amino}-acetic acid ethyl ester] | > 10000 nM | 5.8 nM |
| O=C(c1ccc(N2CC(F)(F)C2)c(OCC2CC2)n1)N1CC(F)(F)C(F)(F)C1 [Example 118, [6-Cyclopropylmethoxy-5-(3,3-difluoro-azetidin-1-yl)-pyridin-2-yl]-(3,3,4,4-tetrafluoro-pyrrolidin-1-yl)-methanone] | > 10000 nM | 13.2 nM |
| C[C@]1(O)C[C@@H](C(N)=O)N(C(=O)c2ccc(N3CC(F)(F)C3)c(OCC3CC3)n2)C1 [Example 140, (+)-(2S)-1-[6-(Cyclopropylmethoxy)-5-(3,3-difluoroazetidin-1-yl)pyridine-2-carbonyl]-4-hydroxy-4-methylpyrrolidine-2-carboxamide] | > 10000 nM | 40.6 nM |
| CN(C=O)C(=O)c1ccc(N2CC(F)(F)C2)c(OCC2CC2)n1 [Example 51, 6-(Cyclopropylmethoxy)-5-(3,3-difluoroazetidin-1-yl)-N-formyl-N-methylpyridine-2-carboxamide] | > 10000 nM | 789 nM |
| NC(=O)C1CS(=O)(=O)CN1C(=O)c1ccc(C2(F)CCC2)c(OCC2CC2)n1 (stereo not drawn) [Example 133, 3-[6-(Cyclopropylmethoxy)-5-(1-fluorocyclobutyl)pyridine-2-carbonyl]-1,1-dioxo-1,3-thiazolidine-4-carboxamide] | > 10000 nM | 10.2 nM |
| O=C(c1ccc(N2CC(F)(F)C2)c(OCC2CC2)n1)N1CC(F)(F)C1 [Example 102, [6-Cyclopropylmethoxy-5-(3,3-difluoro-azetidin-1-yl)-pyridin-2-yl]-(3,3-difluoro-azetidin-1-yl)-methanone] | > 10000 nM | 181 nM |
| NC(=O)C1CS(=O)(=O)CN1C(=O)c1ccc(N2CC(F)(F)C2)c(OCC2CC2)n1 (stereo not drawn) [Example 125, 3-[6-(Cyclopropylmethoxy)-5-(3,3-difluoroazetidin-1-yl)pyridine-2-carbonyl]-1,1-dioxo-1,3-thiazolidine-4-carboxamide] | > 10000 nM | 9.5 nM |
| CCOC(=O)C1CCCN(C(=O)c2ccc(N3CC(F)(F)C3)c(OCC3CC3)n2)C1c1ccccc1 (stereo not drawn) [Example 67, 1-[6-Cyclopropylmethoxy-5-(3,3-difluoro-azetidin-1-yl)-pyridine-2-carbonyl]-2-phenyl-piperidine-3-carboxylic acid ethyl ester] | > 10000 nM | 368 nM |
| O=C(c1ccc(C2CC2)c(OCC2CC2)n1)N1CC(O)(C(F)(F)F)C1 [Example 144, [5-Cyclopropyl-6-(cyclopropylmethoxy)pyridin-2-yl]-[3-hydroxy-3-(trifluoromethyl)azetidin-1-yl]methanone] | > 10000 nM | 73 nM |
| O=C(c1ccc(N2CC(F)(F)C2)c(OCC2CC2)n1)N1CC(O)(C(F)(F)F)C1 [Example 139, [6-(Cyclopropylmethoxy)-5-(3,3-difluoroazetidin-1-yl)pyridin-2-yl]-[3-hydroxy-3-(trifluoromethyl)azetidin-1-yl]methanone] | > 10000 nM | 42 nM |
| CN(C(=O)c1ccc(C(F)(F)F)c(OCC2CCCO2)n1)C(C)(C)C (stereo not drawn) [Example 15, 6-(Tetrahydro-furan-2-ylmethoxy)-5-trifluoromethyl-pyridine-2-carboxylic acid tert-butyl-methyl-amide] | > 10000 nM | 249 nM |
| NC(=O)C1CS(=O)(=O)CN1C(=O)c1ccc(C2(O)CCC2)c(OCC2CC2)n1 (stereo not drawn) [Example 131, 3-[6-(Cyclopropylmethoxy)-5-(1-hydroxycyclobutyl)pyridine-2-carbonyl]-1,1-dioxo-1,3-thiazolidine-4-carboxamide] | > 10000 nM | 62.5 nM |
| CN(C(=O)c1ccc(N2CC(F)(F)C2)c(OCC2CC2)n1)c1ccccc1 [Example 52, 6-Cyclopropylmethoxy-5-(3,3-difluoro-azetidin-1-yl)-pyridine-2-carboxylic acid methyl-phenyl-amide] | > 10000 nM | 645 nM |
| O=C(c1ccc(N2CC(F)(F)C2)c(OCC2CC2)n1)N1CCC2(CC2)C1 [Example 104, (5-Aza-spiro[2.4]hept-5-yl)-[6-cyclopropylmethoxy-5-(3,3-difluoro-azetidin-1-yl)-pyridin-2-yl]-methanone] | > 10000 nM | 7.4 nM |

From patent US9303012B2, “Pyridine-2-amides useful as CB2 agonists” (Hoffmann-La Roche Inc., priority 2012, dated 2016)
